The experiment addresses T1, MOR42-3 (Mus musculus, UniProt E9PX47).
T1 sequence (E9PX47 1-334): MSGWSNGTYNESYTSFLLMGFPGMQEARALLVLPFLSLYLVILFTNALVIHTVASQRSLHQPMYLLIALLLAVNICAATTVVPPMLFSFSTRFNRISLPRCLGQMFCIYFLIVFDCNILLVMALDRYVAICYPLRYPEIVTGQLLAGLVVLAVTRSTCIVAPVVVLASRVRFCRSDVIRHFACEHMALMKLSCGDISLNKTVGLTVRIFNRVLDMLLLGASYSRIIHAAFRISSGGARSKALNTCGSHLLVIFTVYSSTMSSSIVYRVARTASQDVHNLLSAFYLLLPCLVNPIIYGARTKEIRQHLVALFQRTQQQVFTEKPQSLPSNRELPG
Description: CRE luciferase reporter assay in Hana3A cells. It is filed as cell-based. (Reporter assays use an easily measured gene product as a stand-in for the process of interest.)

SMILES strings stand for the structures.

For orientation: EC50 means the concentration needed to bring the measured effect to its halfway point. A low value points to a more potent agent. Take `O=C(O)CCCCCCCC(=O)O` [NA]: the EC50 came to 29.4 ± 12.8 µM.

The record behind these values is article PMC8931335 (Proceedings of the National Academy of Sciences of the …, 2022).
